Measurements: ChEMBL document CHEMBL5036363, “Discovery and Lead Optimization of Benzene-1,4-disulfonamides as Oxidative Phosphorylation Inhibitors” (J Med Chem, 2022)
The source made the active and inactive calls. No cut-off for these calls is given here.

Legend:
[1] = Inhibition of oxidative phosphorylation complex I in human MIA PaCa-2 cells assessed as reduction in NAD+/NADH ratio incubated for 48 hrs by NAD/NADH-Glo assay; assay type: cell-based; conditions: MIA PaCa-2, 48 h
[2] = tested on: MIA PaCa-2; test: Inhibition of oxidative phosphorylation in human MIA PaCa-2 cells assessed as reduction in ATP production incubated for 24 hrs in glucose-containing medium by CellTiter-glo luminescence assay; assay type: functional, cell-based
[3] = tested on: MIA PaCa-2; test: Cytotoxicity against human MIA PaCa-2 cells assessed as inhibition of cell growth incubated for 3 days in galactose-containing medium by MTT assay; assay type: functional, cell-based; conditions: MIA PaCa-2, 72 h
[4] = Microsomal stability in mouse liver microsomes assessed as half life at 10 uM measured upto 60 mins by LC-MS/MS analysis; assay type: ADME, Microsome; conditions: for t1/2: microsomes, 1 h, 10 µM
[5] = Microsomal stability in human liver microsomes assessed as half life at 10 uM measured upto 60 mins by LC-MS/MS analysis; assay type: ADME, Microsome; conditions: for half-life at 10 µM: liver microsomes; for t1/2: microsomes, 1 h, 10 µM
[6] = Inhibition of oxidative phosphorylation in human MIA PaCa-2 cells assessed as reduction in ATP production incubated for 24 hrs in galactose-containing medium by CellTiter-glo luminescence assay; assay type: functional, cell-based; conditions: MIA PaCa-2, 24 h
[7] = tested on: MIA PaCa-2; test: Cytotoxicity against human MIA PaCa-2 cells assessed as inhibition of cell growth incubated for 3 days in glucose-containing medium by MTT assay; assay type: functional, cell-based; conditions: MIA PaCa-2, 72 h
[8] = tested on: MIA PaCa-2; test: Cytotoxicity against human MIA PaCa-2 cells assessed as inhibition of cell growth incubated for 7 days in glucose-containing medium by MTT assay; assay type: functional, cell-based; conditions: MIA PaCa-2, 168 h
[9] = tested on: BXPC-3; test: Cytotoxicity against human BXPC-3 cells assessed as inhibition of cell growth incubated for 7 days in glucose-containing medium by MTT assay; assay type: functional, cell-based; conditions: BXPC-3, 168 h
[10] = organism: Homo sapiens; test: Inhibition of complex-I-dependent oxygen consumption in mitochondria of human PC-3 cells by luxcel-dye staining based MitoXpress method; assay type: functional, cell-based
[11] = Cytotoxicity against human UM16 cells assessed as inhibition of cell growth; assay type: functional, cell-based
[12] = Toxicity in C57BL/6 mouse xenografted with human MIA PaCa-2 cells assessed as body weight loss at 5 mg/kg, ip measured twice a week for 28 days; assay type: organism-based; conditions: in vivo, 672 h, time 28 day
[13] = tested on: MIA PaCa-2; test: Antitumor activity against human MIA PaCa-2 cells xenografted in C57BL/6 mouse syngeneic model assessed as tumor growth inhibition at 5 mg/kg, ip measured upto 28 days by digital caliper method; assay type: functional, organism-based; conditions: time day <=28
[14] = tested on: NCI-H460; test: Cytotoxicity against human NCI-H460 cells assessed as reduction in galactose-dependent cell viability incubated for 3 days by IncuCyte live-cell imaging assay; assay type: functional, cell-based; conditions: NCI-H460, 72 h
[15] = Drug metabolism in mouse liver microsomes assessed as formation of de-ethylated diethyl-sulfonamide moiety metabolite at 10 uM measured after 7 to 30 mins by LC-MS/MS analysis; assay type: ADME, Microsome; conditions: time 7-30 min
[16] = Drug metabolism in mouse liver microsomes assessed as formation of hydroxylated piperidine ring moiety metabolite at 10 uM measured after 7 to 30 mins by LC-MS/MS analysis; assay type: ADME, Microsome; conditions: time 7-30 min
[17] = Inhibition of mitochondrial complex I in human pancreatic cancer cells assessed as reduction in oxygen consumption rate measured immediately by seahorse XFe96 analyser based assay; conditions: pancreatic cancer cell
[18] = Kinetic aqueous solubility of the compound by turbidimetric method; assay type: physicochemical; conditions: buffer
[19] = Inhibition of mitochondrial complex I in human HepG2 cells assessed as reduction in oxygen consumption rate incubated for 6 hrs by seahorse XF analyser based assay; assay type: cell-based
[20] = Inhibition of mitochondrial complex I (unknown origin) incubated for 20 hrs by Colorimetric assay

| SMILES | IC50 [3] | IC50 [7] | IC50 [8] | IC50 [9] | further results |
| --- | --- | --- | --- | --- | --- |
| CC(C)c1noc(C2CCN(C(=O)[C@@H]3CCCN(S(=O)(=O)c4ccc(S(=O)(=O)C(C)C)cc4)C3)CC2)n1 | > 10000 nM | 20 nM | 50 nM | – | IC50 [1]: 7.1 nM; inhibition [2]: inactive; t1/2 [4]: 32.58 min; half-life at 10 µM [5]: > 60 min; IC50 [6]: 17.2 nM |
| CC(C)c1noc(N2CCN(C(=O)[C@@H]3CCCN(S(=O)(=O)c4ccc(S(=O)(=O)C(C)C)cc4)C3)CC2)n1 | > 10000 nM | – | 70 nM | – | IC50 [1]: 30.4 nM; inhibition [2]: inactive; half-life at 10 µM ([4]; liver microsomes): > 60 min; half-life at 10 µM [5]: > 60 min; IC50 [6]: 29.2 nM |
| CCC(CC)S(=O)(=O)c1ccc(S(=O)(=O)N2CCC[C@@H](C(=O)N3CCN(c4nc(C(C)C)no4)CC3)C2)cc1 | – | – | 50 nM | 120 nM | t1/2 [4]: 7.77 min; t1/2 [5]: 2.53 min |
| Cc1cc(-c2nc(-c3ccc(OC(F)(F)F)cc3)no2)nn1Cc1ccnc(N2CCN(C3CC3)CC2)c1 | – | – | – | – | IC50 [10]: 10 nM |
| CCOC(=O)[C@H]1CCCN(S(=O)(=O)c2ccc(S(=O)(=O)N(CC)CC)cc2)C1 | – | – | – | – | IC50 [11]: 9470 nM |
| CCOC(=O)N1CCC[C@H](S(=O)(=O)c2ccc(S(=O)(=O)N(CC)CC)cc2)C1 | > 10000 nM | > 10000 nM | > 30000 nM | > 30000 nM | – |
| CCN(CC)C(=O)c1ccc(S(=O)(=O)N2CCC[C@@H](C(=O)N3CCN(c4nc(C(C)C)no4)CC3)C2)cc1 | > 10000 nM | 70 nM | 100 nM | 1400 nM | t1/2 [4]: 10.47 min; t1/2 [5]: 12.76 min |
| CCNS(=O)(=O)c1ccc(S(=O)(=O)N2CCC[C@@H](C(=O)N3CCN(c4nc(C(C)C)no4)CC3)C2)cc1 | > 10000 nM | 200 nM | 3300 nM | 6900 nM | – |
| CC(C)c1noc(N2CCN(C(=O)[C@@H]3CCCN(S(=O)(=O)c4ccc(S(=O)(=O)C5CCC5)cc4)C3)CC2)n1 | > 10000 nM | 20 nM | 70 nM | – | Activity [12]: Non-Toxic; IC50 [1]: 16 nM; inhibition [2]: inactive; IC50 [6]: 42.6 nM; Activity [13]: Active |
| CCCN(CCC)S(=O)(=O)c1ccc(S(=O)(=O)N2CCC[C@@H](C(=O)OCC)C2)cc1 | > 10000 nM | 600 nM | 2300 nM | 2500 nM | – |
| CCOC(=O)[C@@H]1CCCN(S(=O)(=O)c2ccc(S(=O)(=O)N(CC)CC)c(F)c2)C1 | > 10000 nM | 200 nM | 900 nM | 1600 nM | – |
| Cc1nc(-c2nc(-c3ccc(OC(F)(F)F)cc3)no2)nn1Cc1cccc(N2CCC(S(C)(=O)=O)CC2)c1 | – | – | – | – | IC50 [14]: 1.4 nM |
| CCN(CC)C(=O)[C@@H]1CCCN(S(=O)(=O)c2ccc(S(=O)(=O)N(CC)CC)cc2)C1 | > 10000 nM | 700 nM | 6400 nM | 10500 nM | – |
| CCN(CC)S(=O)(=O)c1ccc(S(=O)(=O)N2CCC[C@@H](c3cc(C)no3)C2)cc1 | > 10000 nM | 2700 nM | 4900 nM | 7700 nM | – |
| CCN(CC)S(=O)(=O)c1ccc(S(=O)(=O)N2CCC[C@@H](C(=O)N3CC4(CCN(C(=O)OC(C)(C)C)C4)C3)C2)cc1 | > 10000 nM | 1300 nM | 190 nM | 900 nM | – |
| CC(C)c1noc(N2CCN(C(=O)[C@@H]3CCCN(S(=O)(=O)c4ccc(S(=O)(=O)NC(C)(C)C)cc4)C3)CC2)n1 | > 10000 nM | 100 nM | 300 nM | 2600 nM | – |

| SMILES | IC50 [3] | IC50 [7] | IC50 [8] | IC50 [9] | further results |
| --- | --- | --- | --- | --- | --- |
| CCOC(=O)[C@@H]1CCCN(S(=O)(=O)c2ccc(S(=O)(=O)N3CCOCC3)cc2)C1 | > 10000 nM | 4100 nM | 23500 nM | 23400 nM | – |
| CCN(CC)S(=O)(=O)c1ccc(S(=O)(=O)N2CCC[C@@H](C(=O)N3CCN(c4nc(C(C)C)no4)CC3)C2)cc1 | > 10000 nM | – | 50 nM | – | IC50 [1]: 8.2 nM; inhibition [2]: inactive; t1/2 [4]: 7.7 min; Drug metabolism [15]: Metabolite_Detected; t1/2 [5]: 1.7 min; IC50 [6]: 30.7 nM; Drug metabolism [16]: Metabolite_Detected |
| CCOC(=O)[C@H]1CCN(S(=O)(=O)c2ccc(S(=O)(=O)N(CC)CC)cc2)C1 | > 10000 nM | > 10000 nM | 29200 nM | 29300 nM | – |
| CCOC(=O)C1CCCN(S(=O)(=O)c2ccc(S(=O)(=O)N(CC)CC)cc2)C1 (racemic) | – | – | – | – | IC50 [11]: 580 nM |
| CCOC(=O)[C@@H]1CCCN(S(=O)(=O)c2ccc(S(=O)(=O)N(CC)CC)nc2)C1 | > 10000 nM | 1600 nM | 5600 nM | 8000 nM | – |
| CCN(CC)S(=O)(=O)c1ccc(S(=O)(=O)N2CCC[C@@H](C(=O)NC)C2)cc1 | > 10000 nM | 2000 nM | 8600 nM | 13800 nM | – |
| CN(C)C(=N)NC(=N)N [METFORMIN] | – | – | – | – | IC50 [17]: 800000 nM |
| CCOC(=O)[C@@H]1CCCN(S(=O)(=O)c2ccc(S(=O)(=O)N(CC)CC)cc2)C1 | > 10000 nM | 90 nM | 400 nM | 600 nM | IC50 [1]: 312 nM; IC50 [11]: 310 nM; inhibition [2]: inactive; solubility [18]: > 200 µM; t1/2 [4]: 0.7 min; t1/2 [5]: 0.64 min; IC50 [6]: 118 nM |
| N=C(N)NC(=N)NCCc1ccccc1 [PHENFORMIN] | – | – | – | – | IC50 [19]: 3800 nM |
| CC(C)NS(=O)(=O)c1ccc(S(=O)(=O)N2CCC[C@@H](C(=O)N3CCN(c4nc(C(C)C)no4)CC3)C2)cc1 | > 10000 nM | 200 nM | 2600 nM | 2600 nM | t1/2 [4]: 29.36 min; t1/2 [5]: 3.36 min |
| CCOC(=O)[C@@H]1CCCN(S(=O)(=O)c2ccc(S(=O)(=O)N3CCCCC3)cc2)C1 | > 10000 nM | 1000 nM | 2900 nM | 3300 nM | – |
| CCN(CC)S(=O)(=O)c1ccc(S(=O)(=O)N2CCC[C@@H](C(=O)NC3COC3)C2)cc1 | > 10000 nM | 900 nM | 2300 nM | 13800 nM | IC50 [1]: 1660 nM; inhibition [2]: inactive; t1/2 [4]: 27.1 min; t1/2 [5]: 18.5 min; IC50 [6]: 951 nM |
| CCOC(=O)[C@@H]1CCC[C@@H](S(=O)(=O)c2ccc(S(=O)(=O)N(CC)CC)cc2)C1 (relative stereo) | > 10000 nM | 5000 nM | 16400 nM | 18500 nM | – |
| FC(F)(F)c1ccc(/C=C/c2nc(COc3ccc(CCCCn4ccnn4)cc3)co2)cc1 [MUBRITINIB] | – | – | – | – | IC50 [20]: 51 nM |
| CCN(CC)S(=O)(=O)c1ccc(S(=O)(=O)N2CCC[C@@H](C(=O)N3CCN(C(=O)OC(C)(C)C)CC3)C2)cc1 | > 10000 nM | 10 nM | 70 nM | 200 nM | – |
| CCOC(=O)[C@@H]1CCCN(S(=O)(=O)c2ccc(S(=O)(=O)N(CC)C(C)C)cc2)C1 | > 10000 nM | 1200 nM | 1000 nM | 1600 nM | – |
